Assay: Water solubility test (aqueous solution clarity and stability)
Type: physicochemical
Conditions: for time the solution stayed clear (before turning hazy): 1.0 gram in 100 ml distilled water with 1% glacial acetic acid, ambient temperatures; for time until the slightly hazy solution turned clear: 1.0 gram sample in 100 ml distilled water acidified with 1% glacial acetic acid, stirring
Experimental: With stirring, 1.0 gram sample from Example 1 was added gradually to 100 ml of distilled water acidified with 1% glacial acetic acid. The solution was slightly hazy at the beginning but turned clear after 45 min. while the commercial product Z-6032 (Dow Coming) under similar conditions turned clear in 20 min.

Molecule: CH3CH2C6H4CH2NH(CH2)2NH(CH2)3Si(OCH3)3•HCl [Example 1]
- time the solution stayed clear (before turning hazy): more than two weeks
- time until the slightly hazy solution turned clear: 45 min

Molecule: C=Cc1ccc(CNCCNCCC[Si](OC)(OC)OC)cc1.Cl [Example Z-6032, CH2═CHC6H4CH2NH(CH2)2NH(CH2)3Si(OCH3)3•HCl]
- time the solution stayed clear (before turning hazy): less than 1 week
- time until the slightly hazy solution turned clear: 20 min

Reference: patent publication US7034070B2, “Arylalkyl aminofunctional silanes for epoxy laminates” (priority 2002, dated 2006)
